Results as given in US20260167622A1, “PAN-KRAS DEGRADING AGENT, AND PREPARATION METHOD THEREFOR AND USE THEREOF” (LEADINGTAC PHARMACEUTICAL (SHAOXING) CO., LTD., priority 2022, published 2026).

Assays:
Human KRAS WT = biological target: T1, Human KRAS WT (Homo sapiens, UniProt P01116); assay: KRAS WT:GTP binding assay (HTRF kit); settings: 25° C., 1 h
T1 construct: purchased PerkinElmer
Experimental: Test Example 3: KRAS WT Binding Assay
In this method, the inhibitory effects of the compounds on the binding of KRAS WT to GTP were assayed by a homogeneous time-resolved fluorescence (HTRF) technique using a KRAS WT:GTP binding assay kit (PerkinElmer).
(§1) The experimental procedures were as follows (refer to the kit instructions for detailed test methods): the compounds of the present disclosure were each firstly dissolved in DMSO at a stock concentration of 20 mM. The stock solutions of the compounds were diluted in an equal gradient with DMSO, and then were subjected to second dilution with a buffer in the kit, so that the final concentrations of the test compounds in the reaction system were in a range of 0.02-5000 nM, and the final concentration of DMSO was 0.5%. […] After the incubation was completed, the fluorescence intensity of each well was measured at the excitation wavelength of 337 nm and the emission wavelengths of 620 nm and 665 nm with an EnVision microplate reader (PerkinElmer) in the HTRF mode, and Ratio values were calculated using the formula: Ratio=(665 nm/620 nm)×[…]. The inhibition rates of the compounds at each concentration were calculated by comparing the fluorescence intensity ratio with that of the control group. […]

Human KRAS G12C = biological target: T2, Human KRAS G12C (Homo sapiens, UniProt P01116, G12C); assay: KRAS G12C:GTP binding assay (HTRF kit); settings: 25° C., 1 h
T2 construct: purchased PerkinElmer
T2 sequence (P01116 1-188 isoform P01116-2 G12C): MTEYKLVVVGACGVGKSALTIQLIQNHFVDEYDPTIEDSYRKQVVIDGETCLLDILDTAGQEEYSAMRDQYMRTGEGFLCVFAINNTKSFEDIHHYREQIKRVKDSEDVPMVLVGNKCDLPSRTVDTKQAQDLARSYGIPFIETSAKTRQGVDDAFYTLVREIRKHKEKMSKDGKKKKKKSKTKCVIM
Experimental: Test Example 4: KRAS G12C Binding Assay
In this method, the inhibitory effects of the compounds on the binding of KRAS G12C to GTP were assayed by a homogeneous time-resolved fluorescence (HTRF) technique using a KRAS G12C:GTP binding assay kit (PerkinElmer).
as §1

T1 sequence (P01116 1-188 isoform P01116-2): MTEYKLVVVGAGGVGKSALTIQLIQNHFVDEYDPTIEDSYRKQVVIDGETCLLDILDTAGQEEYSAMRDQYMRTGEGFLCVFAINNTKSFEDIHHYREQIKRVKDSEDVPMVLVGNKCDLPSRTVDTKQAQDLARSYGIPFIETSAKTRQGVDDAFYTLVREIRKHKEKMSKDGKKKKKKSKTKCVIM

| IC50 (Human KRAS WT) [µM] | IC50 (Human KRAS G12C) [µM] | Structure (SMILES) |
| --- | --- | --- |
| 1 to 10 | 0.5 to 1 | C#Cc1c(F)ccc2cc(O)cc(-c3ncc4c(N5CCC[C@@](C)(O)C5)nc(OCC5(CN6CCN(CC7CCC8(CC7)CCN(C(=O)c7ccc(Cl)c(N9CCC(=O)NC9=O)c7)CC8)CC6)CC5)nc4c3F)c12 [Example 1, (R)-1-(2-chloro-5-(9-((4-((1-(((7-(8-ethynyl-7-fluoro-3-hydroxynaphthalen-1-yl)-8-fluoro-4-(3-hydroxy-3-methylpiperidin-1-yl)pyrido[4,3-d]pyrimidin-2-yl)oxy)methyl)cyclopropyl)methyl)piperazin-1-yl)methyl)-3-azaspiro[5.5]undecane-3-carbonyl)phenyl)dihydropyrimidine-2,4(1H,3H)-dione] |
| 0.5 to 1 | ≤ 0.5 | CCc1cccc2cc(O)cc(-c3ncc4c(N5CCC[C@@](C)(O)C5)nc(OCC5(CN6CCN(CC7CCC8(CC7)CCN(C(=O)c7ccc(Cl)c(N9CCC(=O)NC9=O)c7)CC8)CC6)CC5)nc4c3F)c12 [Example 3, (R)-1-(2-chloro-5-(9-((4-((1-(((7-(8-ethyl-3-hydroxynaphthalen-1-yl)-8-fluoro-4-(3-hydroxy-3-methylpiperidin-1-yl)pyrido[4,3-d]pyrimidin-2-yl)oxy)methyl)cyclopropyl)methyl)piperazin-1-yl)methyl)-3-azaspiro[5.5]undecane-3-carbonyl)phenyl)dihydropyrimidine-2,4(1H,3H)-dione] |
